Values of other authors as cited in patent US20160067227A1, “PHARMACEUTICAL COMBINATIONS FOR THE TREATMENT OF METABOLIC DISORDERS” (Boehringer Ingelheim International GmbH, priority 2012, published 2016).

Conditions: metformin on its own, in the diabetic

Q: For CN(C)C(=N)N=C(N)N [metformin], which “average improvement in the HbA1c value” is on record?
A: Its value is 1.0-1.5%.
